{"source": "patent US20190054054A1", "about": "“Methods reducing or preventing oxidation of high density lipoprotein (HDL)” (Amarin Pharmaceuticals Ireland Limited, priority 2017, published 2019)", "key": {"[1]": {"experiment": "Membrane cholesterol domain peak intensity, x-ray diffraction of POPC/cholesterol membranes (Example 9)", "conditions": "1.5:1 C/P mole ratio; for % change Vs control / Relative Cholesterol Domain Preak Intensity: drug-to-phospholipid mole ratio 1:30; for Relative Cholesterol Domain Preak Intensity: POPC and cholesterol", "description": "The fatty acid stock solutions were stored at −20° C. until use. […] Samples were shell-dried under nitrogen gas and placed under vacuum for 3 hours to remove residual solvent at room temperature. After desiccation, each sample was resuspended in saline buffer (0.5 mM HEPES, 154 mM NaCl, pH 7.3) to yield a final phospholipid concentration of 2.5 mg/mL. Lipid suspensions were then vortexed for 3 minutes at ambient temperature to form MLVs. Membrane lipid vesicles were oriented for x-ray diffraction analysis as described by others (e.g., Herbette et al., Biophys. […] Briefly, a 100 μL aliquot of each MLV preparation (containing 250 μg MLV) was transferred to a Lucite® sedimentation cell fitted with an aluminum foil substrate designed to collect MLVs into a single membrane pellet upon centrifugation. […] After centrifugal orientation, sample supernatants were aspirated and aluminum foil substrates, each supporting a single membrane pellet, were removed from the sedimentation cells. Sample pellets were dried for 5-10 minutes at ambient conditions, mounted onto curved glass supports, and placed in hermetically-sealed, brass or glass containers (for immediate analysis or temporary storage, respectively). All x-ray diffraction experiments were conducted at 20° C., 74% relative humidity. The latter was established by exposing membrane samples to saturated solutions of L-(+)-tartaric acid (K2C4H4O6.½H2O) for at least 1 hour prior to experimental analysis. Oriented membrane samples were aligned at grazing incidence with respect to a collimated, mono-chromatic CuKα x-ray beam (Kα1 and Kα2 unresolved; λ=1.54 Å) produced by a Rigaku Rotaflex RU-200, high-brilliance microfocus generator (Rigaku-MSC, The Woodlands, Tex.) as previously described (Mason et al., Biophys. J., vol. 55(4), pages 769-778 (1989)). The samples were initially subjected to x-ray diffraction analysis at least 12 hours after formation of the membrane pellets and retested for up to several days. Analytical x-rays were generated by electron bombardment of a rotating copper anode and are filtered through a thin nickel foil to provide monochromatic radiation (λ=1.54 Å). Collimation of the x-ray beam was achieved using a single Franks mirror. Diffraction data were collected on a one-dimensional, position-sensitive electron detector (Hecus X-ray Systems, Graz, Austria) at a sample-to-detector distance of 150 mm from the sample site. The d-space for any given membrane multi bilayer is a measurement of the unit cell periodicity of the membrane lipid bilayer (e.g., the distance from the center of one lipid bilayer to the next including surface hydration), and is calculated from Bragg's Law, h λ=2 d sin θ, where h is the diffraction order, λ is the wavelength of the x-ray radiation (1.54 Å), d is the membrane lipid bilayer unit cell periodicity, and θ is the Bragg angle equal to one-half the angle between the incident beam and scattered beam. […] Routines written in Origin 8.6 (OriginLab Corporation, Northampton, Mass.) were used to determine total peak area (associated with all diffraction peaks in a given pattern) against which the second-order cholesterol domain peak was normalized. The raw data collected in this study was normalized using internal. Data were presented as mean+S.E.M. for (N) separate samples or treatment groups. Differences between groups were analyzed using the two-tailed, Student's t-test (for comparisons between only two groups) or ANOVA followed by Dunnett or Student-Newman-Keuls multiple comparisons post-hoc analysis (for comparisons between three or more groups). Alpha error was set to 0.05 in this study."}, "[2]": {"tested_on": "HUVECs exposed to oxLDL", "experiment": "NO and ONOO^− release from HUVECs exposed to oxLDL, nanosensors (Example 8)", "assay_type": "cell-based, human", "conditions": "oxLDL 20 min, then treatment for 1 hour; EPA 10 μM, ATM 1.0 μM", "description": "Human umbilical vein endothelial cells (HUVECs) were isolated into primary cultures from female donors by Clonetics (San Diego, Calif.) and purchased as proliferating cells. All cell culture donors were healthy, with no pregnancy or prenatal complications. […] The confluent cells (4 to 5×10^5 cells/35 mm dish) were placed with minimum essential medium containing 3 mM L-arginine and 0.1 mM BH4 [(6R)-5,6,7,8-tetrahydrobiopterin]. Before experimental use, the cells (from second or third passage) were rinsed twice with Tyrode-HEPES buffer with 1.8 mM CaCl2).\nThe omega-3 fatty acids (O3FAs) cis-5,8,11,14,17-eicosapentaenoic acid (EPA) and docosahexaenoic acid (DHA) were purchased from Sigma-Aldrich (St. Louis, Mo.) and prepared initially at 11 mM in redistilled ethanol. Primary and secondary O3FA stock solutions were prepared and stored under argon at −20° C.\nThe oxLDL causes eNOS uncoupling and endothelial dysfunction to reproduce disease-like conditions. 25 Venous blood from healthy normolipidemic volunteers was collected into Na-EDTA (1 mg/mL blood) vacuum tubes after a 12-hour fast. Plasma was immediately separated by centrifugation at 3,000 g for 10 minutes at 4° C.\nTris-NaCl buffer was added to the dialyzed LDL to adjust the protein concentration to 30 mg/mL. A 1-mL aliquot of 20 μM CuSO4 was added to 1 mL of dialyzed normal LDL.\nOxidation was monitored by the use of measurements of TBARS. Briefly, LDL was incubated with thiobarbituric acid (0.5 wt/vol, in H2SO4, 50 mM) for 30 minutes at 100° C. […] TBARS concentration was determined as malondialdehyde (MDA) equivalents with the use of an MDA standard curve.\nConcurrent measurements of NO and ONOO^− were performed with tandem electrochemical nanosensors combined into one working unit with a total diameter of 200-400 nm. Their design was based on previously developed and chemically modified carbon-fiber technology. Each of the nanosensors was made by depositing a sensing material on the tip of a carbon fiber (length 4 to 5 μm, diameter 100-200 nm). The fibers were sealed with nonconductive epoxy and electrically connected to copper wires with conductive silver epoxy. Conductive films of polymeric Ni(II) tetrakis (3-methoxy-4-hydroxyphenyl) porphyrin and Mn(III) [2.2] paracyclophanylporphyrin were used for the NO and ONOO^− sensors, respectively.\nThe amperometric method (with a response time of 0.1 ms) provides a quantitative signal (current) that is directly proportional to changes (from basal levels) in NO or ONOO^− concentration. Amperometric measurements were performed with a Gamry III double-channel potentiostat. Basal NO or ONOO^− levels were measured by differential pulse voltammetry in separate experiments.\nAll measurements of NO and ONOO^− were performed on intact endothelial cells. The NO/ONOO^− nanosensor module was positioned 5±2 μm from the surface of each individual endothelial cell using a computer-controlled M3301 micromanipulator (x-y-z resolution of 0.2 μm) and microscope (both from World Precision Instruments, Berlin, Germany) fitted with a CD camera.\nEndothelial basal media was used for all the treatments. Controls were supplied with an equivalent volume of endothelial basal media.\nData are presented as mean±S.D. for (N) separate samples or experiments. Differences between groups were analyzed using the two-tailed, Student t-test (for comparisons between only two groups) or ANOVA followed by Student-Newman-Keuls multiple comparisons post-hoc analysis (for comparisons between three or more groups). Only differences with probability values less than 0.05 were considered significant."}, "[3]": {"tested_on": "HUVECs", "experiment": "NO release from HUVECs incubated with agent-treated oxidized sdLDL (Example 12)", "assay_type": "cell-based, human", "conditions": "oxidized sdLDL pretreated with agent at 10.0 μM", "description": "All samples, with the exception of non-oxidized sdLDL controls, were subjected to copper-induced oxidation for 1 hour. Human umbilical vein endothelial cells (HUVECs) were incubated with the various sdLDL samples, stimulated with calcium, and monitored for nitric oxide (NO) and peroxynitrite (ONOO^−) release using nanosensor technology."}}, "note": "Several values for one entry are separate records, joined by “and”; a condition that tells them apart may be missing. Equal values may be shown once."}
{"smiles": "CCCCC/C=C\\C/C=C\\C/C=C\\C/C=C\\CCCC(=O)O", "note": "[AA, arachidonic acid]", "values": [{"measurement": "% change Vs control", "setting": "[1]", "value": "−45.2% and −46.8 ± 15.2%"}, {"measurement": "Relative Cholesterol Domain Preak Intensity", "setting": "[1]", "value": "22.5 ± 4.3"}]}
{"smiles": "CC/C=C\\C/C=C\\C/C=C\\CCCCCCCC(=O)O", "note": "[ALA, α-linolenic acid]", "values": [{"measurement": "% change Vs control", "setting": "[1]", "value": "−46.8% and −45.2 ± 11.3%"}, {"measurement": "Relative Cholesterol Domain Preak Intensity", "setting": "[1]", "value": "23.2 ± 0.6"}]}
{"smiles": "CC1(C)[C@@H](O[C@H]2O[C@H](C(=O)O)[C@@H](O)[C@H](O)[C@H]2O[C@@H]2O[C@H](C(=O)O)[C@@H](O)[C@H](O)[C@H]2O)CC[C@]2(C)[C@H]3C(=O)C=C4[C@@H]5C[C@@](C)(C(=O)O)CC[C@]5(C)CC[C@@]4(C)[C@]3(C)CC[C@@H]12", "note": "[Glyc, glycyrrhizin]", "values": [{"measurement": "reduction in cholesterol domain peaks as compared to vehicle treatment", "setting": "[1]; 1:30", "value": 54.9, "unit": "%"}, {"measurement": "% change Vs control", "setting": "[1]", "value": "−54.9 ± 12.3", "unit": "%"}, {"measurement": "Relative Cholesterol Domain Preak Intensity", "setting": "[1]", "value": "19.1 ± 1.2"}, {"measurement": "Relative Cholesterol Domain Preak Intensity", "setting": "[1]; listed as glycyrrhizin", "value": "19.1±1.2"}]}
{"smiles": "CC(C)OC(=O)C(C)(C)Oc1ccc(C(=O)c2ccc(Cl)cc2)cc1", "note": "[fenofibrate]", "values": [{"measurement": "ONOO^−", "setting": "[2]", "value": "299 ± 24"}, {"measurement": "reduction of NO release as compared to vehicle-treated, oxidized sdLDL", "setting": "[3]", "value": 21, "unit": "%"}]}
